Assay results from US7670631B2, “Method for the prevention of malaria infection of humans by hepatocyte growth factor antagonists” (ALFAMA—Investigação e Desenvolvimento de Produtos …, priority 2003, dated 2010).

Experiments:
[1] = system: ISIF/HGF secretion; assay: ISIF/HGF secretion by HepG2 cells after wounding (infection susceptibility assay); format: cell-based; conditions: HepG2 cells treated, washed, incubated with P. berghei sporozoites to generate conditioned medium
Experimental: HepG2 cells were treated with Brefeldin-A (BFA), an inhibitor of protein transport to the Golgi vesicles that blocks constitutive secretion in eukaryotic cells. BFA treated cells, and untreated control cells, were then washed and incubated with P. berghei sporozoites to generate conditioned medium. […] The effect of BFA was dose-dependent. Supernatants of mechanically wounded HepG2 cells were collected after various time periods of incubation. ISIF/HGF levels, as determined by the infection susceptibility assay (FIG. 2c) and western blot analysis, (FIG. 2d) increased with time. The ISIF activity was abolished by the addition of neutralizing anti-HGF antibodies (FIG. 2c).

[2] = system: Plasmodium berghei; conditions: cited from earlier work
[3] = system: P. berghei sporozoites; assay: Genistein effect on hepatic infection with Plasmodium berghei sporozoites in vitro (EEF count in HepG2 cells); format: cell-based; conditions: Genistein at 25 μM, 24 h with P. berghei sporozoites
Experimental: HepG2 cells were maintained in DMEM 10% FCS, 1 mM glutamine. P. berghei sporozoites were obtained from dissection of infected Anopheles stephensi mosquito salivary glands. P. berghei sporozoites ([…]) were added to monolayers of 2×10^5 HepG2 cells (in the presence or not of Genistein) for 24 h before fixation and staining with anti-EEF mAb (2E6), followed by anti-mouse IgG-FITC antibodies. Infection was quantified by counting the number of EEFs per coverslip.

[4] = system: P. berghei sporozoites; assay: Infection susceptibility (ISIF) assay: HepG2 cells pre-incubated with growth factors or conditioned medium plus antibodies before P. berghei sporozoites; format: cell-based, Plasmodium berghei; conditions: HepG2 cells pre-incubated before addition of P. berghei sporozoites
Experimental: (§1) Supernatant were generated from cultures containing the mouse hepatoma cells Hepa1-6 and P. yoelii sporozoites (mH/Py conditioned media). To detect ISIF activity, fresh hepatoma cells were incubated with mH/Py conditioned media for different periods of time. Cells were then washed and incubated with P. yoelii sporozoites. Infection was examined 24 h later by staining the exo-erythrocytic forms of the parasite (EEFs). As controls, we used Hepa1-6 cells pre-incubated for identical periods of time with fresh medium before addition of P. yoelii sporozoites. Pre-treatment of hepatocytes with mH/Py conditioned medium increases the level of infection (FIG. 1a). […] Since sporozoites are obtained by dissection of infected mosquito salivary glands, we also tested conditioned media that were obtained from cultures containing hepatoma cells and material of salivary glands from uninfected mosquitoes. Medium conditioned in this way was ineffective (FIG. 1b).
To test whether ISIF activity was mediated by known growth factor, two well-characterized growth factors known to be released after injury were tested: basic fibroblast growth factor (bFGF) and hepatocyte growth factor (HGF). HepG2 cells were pre-incubated with human HGF or bFGF before addition of P. berghei sporozoites. As positive and negative controls, cells were incubated with hH/Pb conditioned medium or fresh medium, respectively. […]

[5] = in vivo; cited from earlier work
[6] = system: HGF receptor; assay: ISIF activity of medium conditioned by primary hepatocytes; format: cell-based
Experimental: as §1
Primary hepatocytes were obtained by liver perfusion. […] Cells that have been traversed by sporozoites can be detected using a cell-impermeant fluorescent tracer macromolecule that only penetrates into wounded cells. P. yoelii sporozoites were incubated with Hepa1-6 cells in the presence of fluorescent-labelled dextran before staining for HGF. […]

[7] = target: T1, MET (Homo sapiens, UniProt P08581); conditions: cited from earlier work
T1 construct: host or cells: MLP-29 cells, GTL-16 gastric carcinoma cells and NIH3T3 fibroblasts are named in the same paragraph
T1 sequence (P08581 25-1390): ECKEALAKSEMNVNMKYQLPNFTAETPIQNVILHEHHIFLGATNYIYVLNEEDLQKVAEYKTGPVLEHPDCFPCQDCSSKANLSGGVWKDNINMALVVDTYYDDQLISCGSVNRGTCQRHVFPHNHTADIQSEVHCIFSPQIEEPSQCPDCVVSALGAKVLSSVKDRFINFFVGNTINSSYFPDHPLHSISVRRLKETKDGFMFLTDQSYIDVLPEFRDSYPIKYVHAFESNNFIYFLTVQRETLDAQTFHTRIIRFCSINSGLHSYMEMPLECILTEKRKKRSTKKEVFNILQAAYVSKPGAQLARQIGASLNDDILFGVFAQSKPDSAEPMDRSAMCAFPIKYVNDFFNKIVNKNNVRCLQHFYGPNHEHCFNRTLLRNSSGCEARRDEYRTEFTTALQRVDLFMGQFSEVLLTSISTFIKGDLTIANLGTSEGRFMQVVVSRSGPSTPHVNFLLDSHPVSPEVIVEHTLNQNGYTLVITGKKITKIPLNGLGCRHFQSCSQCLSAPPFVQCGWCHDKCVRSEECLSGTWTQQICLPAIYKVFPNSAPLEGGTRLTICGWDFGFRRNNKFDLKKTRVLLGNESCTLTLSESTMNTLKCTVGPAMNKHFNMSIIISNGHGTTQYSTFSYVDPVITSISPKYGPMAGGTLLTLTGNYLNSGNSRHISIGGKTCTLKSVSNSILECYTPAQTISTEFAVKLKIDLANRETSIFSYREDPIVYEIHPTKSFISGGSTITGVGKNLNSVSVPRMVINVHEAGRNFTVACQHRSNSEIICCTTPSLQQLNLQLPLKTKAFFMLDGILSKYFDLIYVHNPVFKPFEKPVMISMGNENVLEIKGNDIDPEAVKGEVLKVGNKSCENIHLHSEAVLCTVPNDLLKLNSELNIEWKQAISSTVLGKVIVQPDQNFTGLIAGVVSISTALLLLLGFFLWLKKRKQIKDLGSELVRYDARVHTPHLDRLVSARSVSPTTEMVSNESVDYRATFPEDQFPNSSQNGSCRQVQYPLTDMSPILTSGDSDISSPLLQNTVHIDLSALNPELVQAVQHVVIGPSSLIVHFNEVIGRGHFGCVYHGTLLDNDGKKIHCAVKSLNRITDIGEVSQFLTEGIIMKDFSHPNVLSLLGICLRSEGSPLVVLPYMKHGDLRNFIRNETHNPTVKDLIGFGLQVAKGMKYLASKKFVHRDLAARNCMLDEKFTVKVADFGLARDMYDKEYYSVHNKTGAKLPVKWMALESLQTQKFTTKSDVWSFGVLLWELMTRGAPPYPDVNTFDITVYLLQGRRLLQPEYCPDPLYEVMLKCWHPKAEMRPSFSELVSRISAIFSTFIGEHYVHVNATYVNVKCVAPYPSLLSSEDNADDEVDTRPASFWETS

Molecule: C[C@H]1CCC/C=C/[C@@H]2C[C@H](O)C[C@H]2[C@H](O)/C=C/C(=O)O1 [BFA, Brefeldin-A]
- ISIF/HGF secretion [1]: inhibits ISIF/HGF secretion

Molecule: C[C@@H]1C[C@H]2O[C@@H]2/C=C\C=C\C(=O)Cc2c(Cl)c(O)cc(O)c2C(=O)O1 [radicicol]
- activity against Plasmodium berghei in mice [2]: moderately active

Molecule: O=c1c(-c2ccc(O)cc2)coc2cc(O)cc(O)c12 [Genistein, genistein]
- reduction in infection (number of EEFs per coverslip) [3]: approximately 75%

Molecule: HGF: hepatocyte growth factor, ligand of the receptor protein tyrosine kinase Met
- effect on infection of pre-incubation of HepG2 cells with growth factor [4]: increased infection to a greater extent than the hH/Pb conditioned medium

Molecule: OC(c1cc(C(F)(F)F)nc2c(C(F)(F)F)cccc12)C1CCCCN1 (stereo not shown) [Mefloquine, mefloquine]
- elimination half life [5]: two to three

Molecule: COC(=O)[C@@]1(O)C[C@H]2O[C@]1(C)n1c3ccccc3c3c4c(c5c6ccccc6n2c5c31)C(=O)NC4 [K252a]
- ISIF activity [6]: abolished ISIF activity
- concentration inhibiting Met mediated signals [7]: nanomolar concentrations

Molecule: COc1cc(C)c2c(Oc3cccc(C(F)(F)F)c3)c(OC)cc(NC(C)CCCN)c2n1 (stereo not shown) [tafenoquine]
- terminal half life [5]: about 14 days

Molecule: bFGF: basic fibroblast growth factor
- effect on infection of pre-incubation of HepG2 cells with growth factor [4]: ineffective

Molecule: COc1cc(NC(C)CCCN)c2ncccc2c1 (stereo not shown) [Primaquine, primaquine]
- half life [5]: very short
